Experiments:
[1] = sulfoxide formation in lipid solution; type: physicochemical; settings: formulated in lipid solution, in the absence of antioxidant; compared with salt form, e.g. ABT-263 bis-HCl
[2] = test system: small-cell lung cancer (SCLC) and lymphoid malignancies; settings: against SCLC and lymphoid malignancies; cited from earlier work
[3] = dissolution in a lipid carrier when preparing a liquid formulation; type: physicochemical; settings: solution in a lipid carrier; compared with amorphous form

Q: Which “susceptibility to sulfoxide formation” value [1] does the source give for `CC1(C)CCC(c2ccc(Cl)cc2)=C(CN2CCN(c3ccc(C(=O)NS(=O)(=O)c4ccc(N[C@H](CCN5CCOCC5)CSc5ccccc5)c(S(=O)(=O)C(F)(F)F)c4)cc3)CC2)C1` [ABT-263 free base, N-(4-(4-((2-(4-chlorophenyl)-5,5-dimethyl-1-cyclohex-1-en-1-yl)methyl)piperazin-1-yl)benzoyl)-4-(((1R)-3-(morpholin-4-yl)-1-((phenylsulfanyl)methyl)propyl)amino)-3-((trifluoromethyl)sulfonyl)benzenesulfonamide] here?
A: less susceptible to sulfoxide formation than ABT-263 in salt form

Q: Which single-agent activity [2] does the source give for `CN(C)CC[C@H](CSc1ccccc1)Nc1ccc(S(=O)(=O)NC(=O)c2ccc(N3CCN(Cc4ccccc4-c4ccc(Cl)cc4)CC3)cc2)cc1[N+](=O)[O-]` [ABT-737, N-(4-(4-((4′-chloro-(1,1′-biphenyl)-2-yl)methyl)piperazin-1-yl)benzoyl)-4-(((1R)-3-(dimethylamino)-1-((phenylsulfanyl)methyl)propyl)amino)-3-nitrobenzene-sulfonamide] here?
A: single-agent activity

Q: Which dissolution behaviour [3] does the source give for `CC1(C)CCC(c2ccc(Cl)cc2)=C(CN2CCN(c3ccc(C(=O)NS(=O)(=O)c4ccc(N[C@H](CCN5CCOCC5)CSc5ccccc5)c(S(=O)(=O)C(F)(F)F)c4)cc3)CC2)C1` [crystalline ABT-263, N-(4-(4-((2-(4-chlorophenyl)-5,5-dimethyl-1-cyclohex-1-en-1-yl)methyl)piperazin-1-yl)benzoyl)-4-(((1R)-3-(morpholin-4-yl)-1-((phenylsulfanyl)methyl)propyl)amino)-3-((trifluoromethyl)sulfonyl)benzenesulfonamide] here?
A: dissolves faster and has less tendency to form a gel during dissolution
